# Data taken from US20040101576A1, “IMMUNOPOTENTIATORS” (priority 1997, published 2004).
# Test system: Langerhans' cells
# Conditions: antigen (trinitrobenzenesulfonic acid, 1 mg/ml) added, Langerhans' cells UV irradiated, 3 mM glutathione added during irradiation; antigen only 17,500, antigen + UV 5,000 (FIG. 1)
# Method: An antigen (trinitrobenzenesulfonic acid, 1 mg/ml) was added to Langerhans' cells and, after cleaning, they were mixed and cultured with T cells obtained by purifying lymph gland cell floating fluid with a nylon fiber column (Wako).
smiles,measurement,value
N[C@@H](CCC(=O)N[C@@H](CS)C(=O)NCC(=O)O)C(=O)O [glutathione],multiplication of the T cells,"11,000"
